Tested on: participants with SSc-RP
Assay: Scleroderma Health Assessment Questionnaire (SHAQ): disability indices and visual analog scales
Type: in vivo, human
Conditions: minus = improvement, two weeks of treatment
From the text: The standard, validated, patient reported outcome measures tool for SSc patients, the Scleroderma Health Assessment Questionnaire (SHAQ), will be used to assess the participant qualify of life. Details are attached in the Appendix. The participant quality of life will be scored, and a disability index calculated for each questionnaire completed by the patient at Screening and each in-clinic visit. The absolute change in participant quality of life from baseline to the end of each dosing period will be calculated similar to frequency data as before.
The SHAQ includes a Raynaud's VAS, which will be reported at screening and each in-clinic visit. The absolute change in Raynaud-VAS, assessed by the participants response to the SHAQ question ‘In the past 7 days, how much have your Raynaud's interfered with your daily activities?’ at baseline and the end of each dosing period will be calculated similar to frequency data as before.
The SHAQ is used to calculate a Disability Index to assess the participant qualify of life. The eight categories assessed by the Disability Index are 1) dressing and grooming, 2) arising, 3) eating, 4) walking, 5) hygiene, 6) reach, 7) grip, and 8) common daily activities. For each of these categories, patients report the amount of difficulty they have in performing two or three specific activities.
There are four possible responses for the Disability Index questions: • Without any difficulty=0 • With some difficulty=1 • With much difficulty=2 • Unable to do=3. • The highest score reported by the patient for any component question of the eight categories determines the score for that category. • If a component question is left blank or the response is too ambiguous to assign a score, then the score for that category is determined by the remaining completed question(s). • If all component questions are blank or if more than one answer is given, then follow up with the respondent is required. • If the respondent's mark is between the response columns, then move it to the closest one. If it's directly between the two, move it to the higher one.
Each of the disability items on the SHAQ has a companion aids/devices variable that is used to record what type(s) of assistance, if any, the participant uses for his/her usual activities. These variables (see below) are coded as follows: • 0=No assistance is needed. • 1=A special device is used by the patient in his/her usual activities. • 2=The patient usually needs help from another person. • 3=The patient usually needs BOTH a special device AND help from another person.
The scoring variables and scoring rules permit the computation of two disability indices, the Standard Disability Index and the Alternative Disability Index.
This question results in a new set of category scores that are computed by adjusting the score for each category, if necessary, based on the patient's use of an aid or device or assistance for that category. If either devices and/or help from another person are checked for a category, the score is set to “2”, unless the score is already “3” (i.e., scores of “0” or “1” are increased to “2”). For example, if the highest score for the dressing category is “1”, and the patient says they use a device for dressing, the computed category score would be “2”. The sum of the computed categories scores is then calculated and divided by the number of categories answered. This gives a score in the 0 to 3 range.
The aid and device variables are not used to calculate the alternative disability index; it is calculated by adding the scores for each of the categories and dividing by the number of categories answered. This gives a score in the 0 to 3 range.
The standard, validated, patient reported outcome measures tool for SSc patients, the SHAQ, was collected at the time points specified in the study schedules (FIG. 2 and FIGS. 4A and 4B) to assess the participant's quality of life. The SHAQ included a Raynaud's VAS that will also be reported separately.

[1] = Cilnidipine 20 mg n = 3, with Tadalafil 5 mg n = 4

Question: COCCOC(=O)C1=C(C)NC(C)=C(C(=O)OC/C=C/c2ccccc2)C1c1cccc([N+](=O)[O-])c1 (centres unmarked) [Cilnidipine 20 mg] was tested. Which “SHAQ Alternative Disability Index, mean % change” value [1] did it give?
Answer: −42%

Question: What about the “SHAQ Breathing Difficulty, mean % change” value [1] of the same molecule?
Answer: −73%

Question: What about the “SHAQ Burden of Fingers Ulcers, mean % change” value [1] of the same molecule?
Answer: −17%

Question: And the “SHAQ Overall Scleroderma, mean % change” value [1]?
Answer: −63%

Question: And the “SHAQ Pain, mean % change” value [1]?
Answer: −53%

Question: And the “SHAQ Raynaud’s Difficulty, mean % change” value [1]?
Answer: −49%

Question: And the “SHAQ Standard Disability Index, mean % change” value [1]?
Answer: −50%

Question: What about the “SHAQ Intestinal Difficulty, mean % change (pooled, n = 7)” value (pooled, n = 7) of the same molecule?
Answer: −45% (pooled,

Reference: patent publication US20240358693A1, “METHODS OF TREATING PAIN” (Aisa Pharma, Inc., priority 2023, published 2024)
